The term IC50 denotes the midpoint of a concentration-inhibition curve. Read a high IC50 as lower potency. In general, Tmax refers to the time at which the peak concentration occurs. Usually Km stands for the substrate concentration at which the rate is half of its maximum. The Vmax is the top rate of the reaction or transport when substrate is in excess.

We go through 30 molecules from ChEMBL document CHEMBL3526101, “Discovery and characterization of novel, potent, and selective cytochrome P450 2J2 inhibitors” (Drug Metab Dispos, 2013).

Some targets named below: Cytochrome P450 2D6 (Homo sapiens, UniProt P10635); Cytochrome P450 2C19 (Homo sapiens, UniProt P33261); Cytochrome P450 2C9 (Homo sapiens, UniProt P11712); Cytochrome P450 3A4 (Homo sapiens, UniProt P08684).
Data set [1] has as its target T1, Cytochrome P450 2J2 (Homo sapiens, UniProt P51589).
T1 sequence (P51589 whole entry): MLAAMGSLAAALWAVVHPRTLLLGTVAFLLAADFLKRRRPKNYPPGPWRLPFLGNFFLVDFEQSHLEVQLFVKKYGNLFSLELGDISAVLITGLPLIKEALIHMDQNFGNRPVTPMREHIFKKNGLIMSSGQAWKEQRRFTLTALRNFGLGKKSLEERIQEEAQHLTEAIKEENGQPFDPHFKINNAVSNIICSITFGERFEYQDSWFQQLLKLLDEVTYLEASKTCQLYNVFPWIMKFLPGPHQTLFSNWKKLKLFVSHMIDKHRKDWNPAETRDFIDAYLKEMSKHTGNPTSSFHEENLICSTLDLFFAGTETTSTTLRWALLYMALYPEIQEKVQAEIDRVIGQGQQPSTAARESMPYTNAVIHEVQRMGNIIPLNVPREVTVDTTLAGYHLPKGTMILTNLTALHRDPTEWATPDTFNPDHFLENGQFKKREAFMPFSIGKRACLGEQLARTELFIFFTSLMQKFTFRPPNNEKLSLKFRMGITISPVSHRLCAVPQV

In a further data set the target is T2, Cytochrome P450 1A2 (Homo sapiens, UniProt P05177).
T2 sequence (P05177 whole entry): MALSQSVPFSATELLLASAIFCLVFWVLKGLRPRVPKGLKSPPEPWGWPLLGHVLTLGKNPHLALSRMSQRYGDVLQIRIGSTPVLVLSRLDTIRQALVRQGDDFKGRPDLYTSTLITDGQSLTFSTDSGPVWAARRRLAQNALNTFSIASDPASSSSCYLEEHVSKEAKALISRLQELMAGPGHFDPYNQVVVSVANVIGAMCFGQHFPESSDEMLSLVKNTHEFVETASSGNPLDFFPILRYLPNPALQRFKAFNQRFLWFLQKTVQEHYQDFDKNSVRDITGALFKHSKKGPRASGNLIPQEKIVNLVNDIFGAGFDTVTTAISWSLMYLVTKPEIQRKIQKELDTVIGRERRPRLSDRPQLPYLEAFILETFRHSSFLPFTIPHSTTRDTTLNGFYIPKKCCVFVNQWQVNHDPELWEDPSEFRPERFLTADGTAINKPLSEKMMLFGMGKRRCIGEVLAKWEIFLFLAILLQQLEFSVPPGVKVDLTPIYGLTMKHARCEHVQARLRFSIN

The nature of data set [2]: Metabolic stability in human liver microsomes at 1 uM after 30 mins by LC-MS/MS method. The data set is classed as ADME. The note with it: read-out: Stability.
The target of data set [3] is T1, Cytochrome P450 2J2. As to the kind of experiment: Drug metabolism assessed as human recombinant CYP2J2-mediated intrinsic clearance assessed per pmol protein after 30 mins. Type of data set: ADME. Particulars: recombinant enzyme, 0.5 h.
A short description of data set [4]: Tmax in human. The data set is classed as ADME, organism-based. The note with it: in vivo.
Substrate in data set [5]: COc1ccc(CCN2CCC(Nc3nc4ccccc4n3Cc3ccc(F)cc3)CC2)cc1
As to the kind of experiment: Activity of human recombinant CYP2J2 assessed as compound O-demethylation. The data set is classed as ADME.

Bounds are passed on as bounds.

Cytochrome P450 2C9, sequence (P11712 whole entry): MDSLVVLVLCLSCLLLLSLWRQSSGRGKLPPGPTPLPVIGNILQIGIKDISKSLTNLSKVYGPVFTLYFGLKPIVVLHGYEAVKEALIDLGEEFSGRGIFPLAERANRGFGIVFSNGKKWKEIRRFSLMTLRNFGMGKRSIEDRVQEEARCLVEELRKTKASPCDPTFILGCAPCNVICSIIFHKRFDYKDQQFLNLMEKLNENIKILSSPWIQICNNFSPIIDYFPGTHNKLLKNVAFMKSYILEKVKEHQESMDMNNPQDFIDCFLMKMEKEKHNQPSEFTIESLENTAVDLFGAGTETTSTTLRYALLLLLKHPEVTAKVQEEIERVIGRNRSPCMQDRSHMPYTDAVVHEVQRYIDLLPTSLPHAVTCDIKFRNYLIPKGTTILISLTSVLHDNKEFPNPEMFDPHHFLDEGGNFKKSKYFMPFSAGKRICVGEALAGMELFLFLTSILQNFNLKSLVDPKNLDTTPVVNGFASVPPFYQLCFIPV
Cytochrome P450 2C19, sequence (P33261 whole entry): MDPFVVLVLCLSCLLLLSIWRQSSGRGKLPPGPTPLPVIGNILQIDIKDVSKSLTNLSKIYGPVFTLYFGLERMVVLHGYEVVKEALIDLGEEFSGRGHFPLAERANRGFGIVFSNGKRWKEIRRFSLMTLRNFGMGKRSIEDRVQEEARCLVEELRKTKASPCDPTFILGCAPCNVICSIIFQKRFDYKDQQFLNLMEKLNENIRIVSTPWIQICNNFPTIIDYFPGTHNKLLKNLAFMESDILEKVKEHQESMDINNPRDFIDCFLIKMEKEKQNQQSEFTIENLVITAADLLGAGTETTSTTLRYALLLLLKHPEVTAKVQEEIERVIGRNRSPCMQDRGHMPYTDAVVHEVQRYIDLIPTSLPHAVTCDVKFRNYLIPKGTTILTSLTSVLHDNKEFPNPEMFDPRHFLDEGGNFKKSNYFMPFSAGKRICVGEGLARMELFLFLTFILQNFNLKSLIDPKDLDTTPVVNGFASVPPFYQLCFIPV
Cytochrome P450 2D6, sequence (P10635 whole entry): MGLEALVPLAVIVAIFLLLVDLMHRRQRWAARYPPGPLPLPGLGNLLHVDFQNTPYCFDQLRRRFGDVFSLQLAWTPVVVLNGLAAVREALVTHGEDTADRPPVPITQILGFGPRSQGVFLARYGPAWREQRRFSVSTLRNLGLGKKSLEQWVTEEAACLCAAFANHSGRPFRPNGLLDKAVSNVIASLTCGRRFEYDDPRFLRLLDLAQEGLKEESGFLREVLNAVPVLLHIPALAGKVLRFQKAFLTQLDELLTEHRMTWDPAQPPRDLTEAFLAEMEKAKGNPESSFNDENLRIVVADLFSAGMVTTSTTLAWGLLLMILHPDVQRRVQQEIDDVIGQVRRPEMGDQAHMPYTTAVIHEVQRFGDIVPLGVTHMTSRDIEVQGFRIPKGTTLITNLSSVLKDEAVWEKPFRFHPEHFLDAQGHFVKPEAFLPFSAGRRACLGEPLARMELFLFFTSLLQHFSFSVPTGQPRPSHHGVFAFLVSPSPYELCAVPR
Cytochrome P450 3A4, sequence (P08684 whole entry): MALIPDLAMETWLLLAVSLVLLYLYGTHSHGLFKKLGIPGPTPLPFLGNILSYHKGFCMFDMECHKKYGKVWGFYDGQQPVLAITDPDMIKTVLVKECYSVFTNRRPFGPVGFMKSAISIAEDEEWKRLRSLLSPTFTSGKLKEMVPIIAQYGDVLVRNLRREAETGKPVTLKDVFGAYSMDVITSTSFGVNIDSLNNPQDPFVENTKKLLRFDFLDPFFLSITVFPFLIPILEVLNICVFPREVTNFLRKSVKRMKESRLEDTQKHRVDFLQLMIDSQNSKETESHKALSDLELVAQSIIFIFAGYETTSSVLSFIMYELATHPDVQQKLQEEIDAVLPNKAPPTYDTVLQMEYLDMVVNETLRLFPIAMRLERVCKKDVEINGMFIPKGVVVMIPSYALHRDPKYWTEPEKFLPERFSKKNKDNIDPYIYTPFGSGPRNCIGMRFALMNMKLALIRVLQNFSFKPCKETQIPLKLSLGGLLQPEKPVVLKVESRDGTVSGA

For `CC(C)COCC(CN(Cc1ccccc1)c1ccccc1)N1CCCC1` (stereo unspecified) [BEPRIDIL], the IC50 on Cytochrome P450 2D6 is greater than 50 µM; against Cytochrome P450 2J2 [1], 11.5 µM; against Cytochrome P450 1A2, greater than 50 µM.

For `Cc1c(OCC(F)(F)F)ccnc1C[S+]([O-])c1nc2ccccc2[nH]1` (stereo unspecified) [LANSOPRAZOLE], the IC50 at Cytochrome P450 2J2 [1] is greater than 50 µM.

Take `CCCc1nc2c(C)cc(-c3nc4ccccc4n3C)cc2n1Cc1ccc(-c2ccccc2C(=O)O)cc1`: the IC50 was greater than 50 µM at Cytochrome P450 2C19, greater than 50 µM at Cytochrome P450 2D6, greater than 50 µM at Cytochrome P450 1A2 and 4.78 µM against Cytochrome P450 2C9. In addition, in data set [2], the remaining at 0.5 h, 1 µM came out at 97.7%.

For the molecule `CC[C@H]1OC(=O)[C@H](C)[C@@H](O[C@H]2C[C@@](C)(OC)[C@@H](O)[C@H](C)O2)[C@H](C)[C@@H](O[C@@H]2O[C@H](C)C[C@H](N(C)C)[C@H]2O)[C@](C)(O)C[C@@H](C)C(=O)[C@H](C)[C@@H](O)[C@]1(C)O` [ERYTHROMYCIN], the IC50 on Cytochrome P450 2J2 [1] was greater than 50 µM.

On Cytochrome P450 3A4, `CCN(CC)Cc1cc(Nc2ccnc3cc(Cl)ccc23)ccc1O` [AMODIAQUINE] gave an IC50 greater than 50 µM.

For `Cc1cccc(Nc2ccccc2C(=O)O)c1C` [MEFENAMIC ACID], the IC50 on Cytochrome P450 2J2 [1] was greater than 50 µM.

In turn, `CC1(C)S[C@@H]2[C@H](NC(=O)[C@H](N)c3ccc(O)cc3)C(=O)N2[C@H]1C(=O)O` [AMOXICILLIN] returned an IC50 against Cytochrome P450 2J2 [1] greater than 50 µM.

For the molecule `C[C@]12C=CC(=O)C=C1CC[C@H]1[C@@H]3C[C@@H](O)[C@](O)(C(=O)CO)[C@@]3(C)C[C@H](O)[C@@]12F` [TRIAMCINOLONE], the IC50 against Cytochrome P450 2D6 is greater than 50 µM; on Cytochrome P450 2J2 [1], 9.47 µM; on Cytochrome P450 1A2 it was greater than 50 µM; against Cytochrome P450 2C9, greater than 50 µM.

The molecule `COc1ccc2[nH]c([S+]([O-])Cc3ncc(C)c(OC)c3C)nc2c1` (stereo unspecified) [OMEPRAZOLE] had an IC50 at Cytochrome P450 2J2 [1] greater than 50 µM.

`C[C@]12C=CC(=O)C=C1CC[C@@H]1[C@@H]2[C@@H](O)C[C@@]2(C)[C@H]1CC[C@]2(O)C(=O)CO` [PREDNISOLONE] returned an IC50 on Cytochrome P450 2J2 [1] greater than 50 µM.

As to `CCc1oc2ccccc2c1C(=O)c1cc(Br)c(O)c(Br)c1` [BENZBROMARONE], the IC50 at Cytochrome P450 2D6 is greater than 50 µM; against Cytochrome P450 2J2 [1] it was 4.26 µM; on Cytochrome P450 1A2, 33.1 µM.

`Nc1ccc(S(=O)(=O)Nc2ccnn2-c2ccccc2)cc1` [SULFAPHENAZOLE] came in with an IC50 at Cytochrome P450 2J2 [1] greater than 50 µM.

Take `NC(=O)N1c2ccccc2C=Cc2ccccc21` [CARBAMAZEPINE]: the IC50 against Cytochrome P450 2J2 [1] is greater than 50 µM.

`CN1C(C(=O)Nc2ccccn2)=C(O)c2ccccc2S1(=O)=O` [PIROXICAM] returned an IC50 on Cytochrome P450 2J2 [1] greater than 50 µM.

`C[C@@H]1C[C@H]2[C@@H]3CCC4=CC(=O)C=C[C@]4(C)[C@@]3(F)[C@@H](O)C[C@]2(C)[C@@]1(O)C(=O)CO` [DEXAMETHASONE] registered an IC50 on Cytochrome P450 2J2 [1] greater than 50 µM.

For the molecule `COc1ccc(CCN2CCC(Nc3nc4ccccc4n3Cc3ccc(F)cc3)CC2)cc1` [ASTEMIZOLE], the CL on Cytochrome P450 2J2 [3] came to 3.05 µL/min.

On to `COCC(=O)O[C@]1(CCN(C)CCCc2nc3ccccc3[nH]2)CCc2cc(F)ccc2[C@@H]1C(C)C` [MIBEFRADIL], for which the IC50 on Cytochrome P450 2C19 was 1.32 µM; at Cytochrome P450 2D6, 0.84 µM; against Cytochrome P450 2J2 [1], 2.14 µM; against Cytochrome P450 1A2, greater than 50 µM; against Cytochrome P450 2C9, 28.4 µM.

Turning to `CO/N=C(\C(=O)N[C@@H]1C(=O)N2C(C(=O)O)=C(CSc3nc(=O)c(=O)[nH]n3C)CS[C@H]12)c1csc(N)n1` [CEFTRIAXONE], the half-maximal inhibitory concentration (IC50) against Cytochrome P450 2J2 [1] turned out to be 27.4 µM.

As to `CN(C)CCCN1c2ccccc2CCc2ccccc21` [IMIPRAMINE], the IC50 against Cytochrome P450 2J2 [1] is greater than 50 µM.

For the molecule `COc1ccc2c(c1)[C@]13CCCC[C@@H]1[C@H](C2)N(C)CC3` [DEXTROMETHORPHAN], the IC50 at Cytochrome P450 2J2 [1] was greater than 50 µM.

On Cytochrome P450 2J2 [1], `CN1CCC[C@@H]1Cc1c[nH]c2ccc(CCS(=O)(=O)c3ccccc3)cc12` came in with an IC50 greater than 50 µM.

As for `CN[C@H]1CC[C@@H](c2ccc(Cl)c(Cl)c2)c2ccccc21` [SERTRALINE], the IC50 at Cytochrome P450 2C19 is 22.5 µM; against Cytochrome P450 2D6, 2.88 µM; against Cytochrome P450 2J2 [1], 18.5 µM; against Cytochrome P450 1A2, 29.7 µM; against Cytochrome P450 2C9 it was greater than 50 µM.

Take `C=CCc1ccccc1OCC(O)CNC(C)C` (stereo unspecified) [ALPRENOLOL]: the IC50 on Cytochrome P450 2J2 [1] was greater than 50 µM.

With `CCCc1nc(C(C)(C)O)c(C(=O)O)n1Cc1ccc(-c2ccccc2-c2nnn[nH]2)cc1` [OLMESARTAN], the IC50 on Cytochrome P450 2J2 [1] was greater than 50 µM.

Turning to `CCn1cc(C(=O)O)c(=O)c2cc(F)c(N3CCNCC3)cc21` [NORFLOXACIN], the IC50 on Cytochrome P450 1A2 and against Cytochrome P450 2C9 was greater than 50 µM each time.

For the molecule `CC(=O)Nc1ccc(O)cc1` [ACETAMINOPHEN], the IC50 against Cytochrome P450 2J2 [1] was greater than 50 µM.

On to `COc1ccc(CCN(C)CCCC(C#N)(c2ccc(OC)c(OC)c2)C(C)C)cc1OC` (stereo unspecified), for which the IC50 at Cytochrome P450 1A2 is greater than 50 µM.

Turning to `COCCc1ccc(OCC(O)CNC(C)C)cc1` (stereo unspecified) [METOPROLOL], the IC50 against Cytochrome P450 1A2 and on Cytochrome P450 3A4 was greater than 50 µM throughout.

In the case of `Fc1ccc(C(c2ccc(F)cc2)N2CCN(C/C=C/c3ccccc3)CC2)cc1` [FLUNARIZINE], the IC50 at Cytochrome P450 2C19, on Cytochrome P450 1A2 and at Cytochrome P450 2C9 was greater than 50 µM each time. The remaining at 0.5 h, 1 µM in [2] came out at 83.8%. Moreover, in [4], the Tmax came out at 4 h.

B1: Cytochrome P450 2J2 (Homo sapiens) (protein)
chain: MLAAMGSLAAALWAVVHPRTLLLGTVAFLLAADFLKRRRPKNYPPGPWRLPFLGNFFLVDFEQSHLEVQLFVKKYGNLFSLELGDISAVLITGLPLIKEALIHMDQNFGNRPVTPMREHIFKKNGLIMSSGQAWKEQRRFTLTALRNFGLGKKSLEERIQEEAQHLTEAIKEENGQPFDPHFKINNAVSNIICSITFGERFEYQDSWFQQLLKLLDEVTYLEASKTCQLYNVFPWIMKFLPGPHQTLFSNWKKLKLFVSHMIDKHRKDWNPAETRDFIDAYLKEMSKHTGNPTSSFHEENLICSTLDLFFAGTETTSTTLRWALLYMALYPEIQEKVQAEIDRVIGQGQQPSTAARESMPYTNAVIHEVQRMGNIIPLNVPREVTVDTTLAGYHLPKGTMILTNLTALHRDPTEWATPDTFNPDHFLENGQFKKREAFMPFSIGKRACLGEQLARTELFIFFTSLMQKFTFRPPNNEKLSLKFRMGITISPVSHRLCAVPQV
With B1, in data set [5], the Km was found to be 0.09 µM and the Vmax is 0.000339 µmol/min.
